Test results reported in patent US11692194B2, “Modulating expression of polypeptides via new gene switch expression systems” (Precigen, Inc., priority 2017, dated 2023).

Legend:
[1] = test system: CD19-specific CAR-T cells co-expressing RTS-mbIL-15; assay: Survival of CD19 CAR/RTS-mbIL-15 T cells upon withdrawal of IL-2 and IL-21; type: cell-based, human; conditions: veledimex 50 nM, ex vivo culture, % live cells by flow
Description: Multiple Sleeping Beauty transposon DNA plasmids encoding for RTS-membrane bound IL-15 (RTS-mbIL-15), CD19-specific chimeric antigen receptor (CD19 CAR) (Design 9, FIG. 2) were transfected into peripheral blood mononuclear cells (PBMC) along with plasmid DNA encoding for Sleeping Beauty transposase SB11 via nucleofection (FIG. 1). On day 0, 20 million PBMC were resuspended in 100 μL of Amaxa Human T cell Nucleofector solution (Cat. no. VPA-1002; Lonza, Basel, Switzerland) mixed with a total of 15 μg of transposons and 5 μg of transposase and nucleofected into cells. The following day (day1) cells were counted, and CAR expression was measured using flow cytometry. Cells were stimulated with either γ-irradiated (100 Gy) or mitomycin C treated K562 based AaPCs expressing CD19 on their surface at a 1:1 ratio. Cultures were supplemented with IL-21 (30 ng/ml) only for the first round of stimulation and subsequently with recombinant human IL-2 (50 IU/ml) and IL-21 (30 ng/ml) (Pepro Tech) for remaining stimulations. […] Cultures were also closely monitored for the outgrowth of NK cells (defined as CD3negCD56+ population) and were removed from the CAR T cell cultures when the percentage exceeded 10% of total cell populations using magnetic beads for CD56 (Stem Cell Technologies and/or Miltenyi Biotec), according to the manufacturer's instructions. […]

[2] = test system: RTS-IL-12 in EGFRvIII-CAR-T cells; assay: IL-12 induction in EGFRvIII-CAR/RTS-IL-12 T cells, ELISA of culture supernatant; type: cell-based
Source text: Sleeping Beauty transposons were designed as depicted in FIG. 22 to stably express EGFRvIII-specific CAR, a cell tag and RTS-IL-12. Transposon plasmids were electroporated in several donor T cells as previously described. EGFRvIII-CAR-T cells were selectively expanded ex vivo by successive rounds of stimulations every 7-10 days for up to 4 cycles with either γ-irradiated or mitomycin C treated AaPC that served as “feeder cells” at 1:1 ratio in media supplemented with IL-2 and IL-21. The AaPC cells used were K562-AaPC expressing EGFRvIII antigen. FIG. 26 depicts CAR expression in T cells from multiple donors as the CAR+ T cells are selectively expanded ex vivo.
To assay IL-12 induction in EGFRvIII-CAR-T cells, Pan T-cells at 24 h post nucleofection were treated with DMSO (control) or veledemix in the presence of AaPCs in media containing IL-21. After 48 hours post-nucleofection, culture supernatants were analyzed for IL-12 levels by ELISA.
Furthermore, the ability of RTS-IL-12/CAR-T cells to produce inducible IL-12 was assessed in presence or absence of antigen specific stimulation. EGFRvIII-CAR/RTS-IL-12 T cells were expanded ex vivo by three successive rounds of stimulation with EGFRvIII^+ AaPCs. […]

CCC[C@@H](N(NC(=O)c1cccc(OC)c1CC)C(=O)c1cc(C)cc(C)c1)C(C)(C)C [veledimex, N-[(1R)-1-(1,1-dimethylethyl)butyl]-N′-(2-ethyl-3-methoxybenzoyl)-3,5-dimethylbenzohydrazide]
survival of CAR-T cells in absence of cytokines (IL-2 and IL-21) [1]: improved survival of CAR-T cells
veledimex induced IL-12 with versus without EGFRvIII^+ AaPCs ([2]; 100 nM veledimex, 48 hours, after three rounds of stimulation): greatly enhanced in presence of EGFRvIII antigen specific stimulation
IL-12 expression in culture supernatant ([2]; T cells co-expressing CAR and RTS-IL-12, treated 24 h post nucleofection with AaPCs and IL-21): induced IL-12 expression
